Data from patent publication US8030314B2, “Use of 2h-benzimidazol-2-one, 1,3-dihydro-1-(2{4-[3-(trifluoromethyl)phenyl]-1-piperazinyl}ethyl)-and its physiologically acceptable acid addition salts” (priority 2001, dated 2011).

What was measured:
[1] = test system: levodopa-induced dyskinesias; experiment: levodopa-induced dyskinesias in MPTP-treated common marmosets; type: in vivo, common marmosets (callithrix jacchus)
Method: In order to investigate the efficacy of flibanserin in the treatment of levodopa-induced dyskinesias, experiments in a primate model of Parkinson's disease were performed. 6 common marmosets (callithrix jacchus) that developed chronical Parkinsonian motor deficits after MPTP administration were treated orally with levodopa plus carbidopa for 3 weeks according to the procedure described by Pearce et al. (1995). […] The severity of dyskinesias was measured by assessing the extent of choreic and dystonic movements in all parts of the body.

[2] = test system: cultured dopaminergic cells (from fetal rat mesencephalic tissue); experiment: survival of cultured dopaminergic cells exposed to 6-hydroxydopamine; type: cell-based; conditions: toxin (6-hydroxydopamine) co-administered with flibanserin
Method: The reason of developing Parkinson's disease is a chronic process leading to a loss of dopaminergic neurons in a certain area of the EPS (substantia nigra). That process may be simulated in an experiment using cultured dopaminergic cells (from fetal rat mesencephalic tissue) which are exposed to a selective toxin (6-hydroxydompamine). The experiments were conducted in accordance with the method of Michel and Hefti, 1990. When the toxin was added to the cell culture medium the survival time of the neurons was markedly diminished. […] This indicates additionally neuroprotective properties of flibanserin. On the basis of these experiments it can be expected that patients treated with flibanserin will take benefit from said neuroprotective effect by slowing down or stopping the progression of the disease . Moreover, if flibanserin is given in early stages of the disease, a steady process leading to more severe stages may be postponed or even avoided. In particular, the occurrence of levodopa-induced dyskinesias can be prevented. In-so-far, a synergistic effect of the common administration of conventional anti-Parkinson drugs along with flibanserin in the treatment of Parkinson's disease is to be expected as increased “ON”-periods and decreased “OFF”-periods may be obtained.

[3] = test system: tardive dyskinesias; experiment: persistent tardive dyskinesia model in baboons; type: in vivo; conditions: baboons with persistent tardive dyskinesia induced by a haloperidol derivative for 41 weeks
Excerpt: The clinical appearance of levodopa-induced dyskinesias and of tardive dyskinesias are very often similar. […] dyskinesias are frequently observed in chronic schizophrenic patients after long-term treatment with neuroleptics. Recently an animal model of tardive dyskinesia was developed by Eyles at al. 2000. Persistent tardive dyskinesias were induced in 6 baboons by application of a derivative of haloperidol for 41 weeks until the animals developed abnormal orofacial signs that were consistent with tardive dyskinesia. These symptoms persisted during the drug-free period. The extent of dyskinesias was assessed by using a score derived fromt that applied in humans (Abnormal Involuntary Movement Scale). There was a significant improvement of dyskinesias by more than 50% after application of flibanserin. That means that flibanserin is also helpful in the treatment of tardive dyskinesia in chronic schizophrenic patients.

[4] = test system: 5-HT inhibitory response (forskolin-stimulated cAMP accumulation); conditions: rat cortex; read-out: reduced forskolin-stimulated cAMP accumulation (EC50); cited from earlier work
[5] = biological target: 5-HT-induced PI turnover; conditions: rat cortex; read-out: antagonized 5-HT-induced PI turnover (Ki); cited from earlier work
[6] = test system: rat cortical firing rate; conditions: in vivo; cited from earlier work

O=c1[nH]c2ccccc2n1CCN1CCN(c2cccc(C(F)(F)F)c2)CC1 [flibanserin, 2H-benzimidazol-2-one, 1,3-dihydro-1-(2-{4-[3-(trifluoromethyl)phenyl]-1-piperazinyl}ethyl)-]
effect of levodopa on rigidity and bradykinesia ([1]; flibanserin in addition to levodopa): not weakened
severity of dyskinesias (extent of choreic and dystonic movements) ([1]; flibanserin in addition to levodopa, MPTP marmosets treated orally with levodopa plus carbidopa for 3 weeks): significantly reduced said dyskinesias
dyskinesia symptoms in monkeys with less severe dyskinesia ([1]; some of the monkeys with less severe dyskinesia): symptoms disappeared entirely
concentrations at which normal survival times were reached [2]: 0.1 to 1 µM
survival time of neurons [2]: increased in a concentration-dependent manner
improvement of dyskinesias (score derived from Abnormal Involuntary Movement Scale) [3]: more than 50%
EC50 [4]: 913 nM
Ki [5]: 113 nM
inhibition of rat cortical firing rate [6]: dose-dependently inhibited rat cortical firing rate
